Source: patent US8802597B2, “Herbicidal pyrimidines” (E I du Pont de Nemours and Company, priority 2003, dated 2014)

How the values were obtained:
Assay in all cases: Test C pre/postemergence
Format in all cases: in vivo
[1] = tested on: velvetleaf (Abutilon theophrasti); settings: for Velvetleaf plant response rating: scale 0 to 100 (0 no effect, 100 complete control)
Method in brief: (§1)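 Percent control is a visual rating (0 none, 100 complete) taken against untreated plants after 12 to 14 days of greenhouse growth. Applications were made preemergence to seeded pots and postemergence to plants at the 1- to 4-leaf stage, in a non-phytotoxic surfactant-containing solvent.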

[2] = tested on: giant foxtail (Setaria faberii); settings: for Foxtail, Giant plant response rating: scale 0 to 100 (0 no effect, 100 complete control)
Method in brief: as §1

[3] = tested on: soybean (Glycine max); settings: for Soybean plant response rating: scale 0 to 100 (0 no effect, 100 complete control)
Method in brief: as §1

[4] = tested on: bermudagrass (Cynodon dactylon)
Method in brief: as §1

[5] = tested on: common ragweed (Ambrosia elatior); settings: for Ragweed plant response rating: scale 0 to 100 (0 no effect, 100 complete control)
Method in brief: as §1

[6] = tested on: morningglory (Ipomoea coccinea); settings: for Morningglory plant response rating: scale 0 to 100 (0 no effect, 100 complete control)
Method in brief: as §1

[7] = tested on: lambsquarters (Chenopodium album); settings: for Lambsquarters plant response rating: scale 0 to 100 (0 no effect, 100 complete control)
Method in brief: as §1

[8] = tested on: yellow nutsedge (Cyperus esculentus); settings: for Nutsedge, Yellow plant response rating: scale 0 to 100 (0 no effect, 100 complete control)
Method in brief: as §1

[9] = tested on: woolly cupgrass (Eriochloa villosa); settings: for Cupgrass, Woolly plant response rating: scale 0 to 100 (0 no effect, 100 complete control)
Method in brief: as §1

[10] = tested on: eastern black nightshade (Solanum ptycanthum); settings: Preemergence
Method in brief: as §1

[11] = tested on: goosegrass (Eleusine indica); settings: for Goosegrass plant response rating: scale 0 to 100 (0 no effect, 100 complete control)
Method in brief: as §1

[12] = tested on: Surinam grass (Brachiaria decumbens); settings: for Surinam Grass plant response rating: scale 0 to 100 (0 no effect, 100 complete control)
Method in brief: as §1

[13] = Postemergence, 250 g ai/ha, scale 0 to 100
[14] = Preemergence, 31 g ai/ha, scale 0 to 100, 0 no effect, 100 complete control
[15] = Preemergence, 62 g ai/ha, scale 0 to 100, 0 no effect, 100 complete control
[16] = Preemergence, 125 g ai/ha, scale 0 to 100
[17] = Preemergence, 250 g ai/ha, scale 0 to 100

CC(C)COC(=O)c1nc(C2CC2)nc(N)c1Br [Compound 17]
100: Plant response rating, Velvetleaf [1, 16] | Plant response rating, Velvetleaf [1, 17] | Soybean plant response rating ([3]; Postemergence, 125 g ai/ha) | Plant response rating, Soybean [3, 13] | Plant response rating, Soybean [3, 17] | Plant response rating, Ragweed [5, 17] | Morningglory plant response rating ([6]; Postemergence, 125 g ai/ha) | Plant response rating, Morningglory [6, 13] | Plant response rating, Morningglory [6, 16] | Plant response rating, Morningglory [6, 17] | Lambsquarters plant response rating ([7]; Postemergence, 62 g ai/ha) | Lambsquarters plant response rating ([7]; Postemergence, 125 g ai/ha) | Plant response rating, Lambsquarters [7, 13] | Plant response rating, Lambsquarters [7, 16] | Plant response rating, Lambsquarters [7, 17] | Plant response rating, Nightshade ([10]; 250 g ai/ha, scale 0 to 100)
20: Plant response rating, Velvetleaf [1, 14] | Plant response rating, Foxtail, Giant [2, 16] | Plant response rating, Cupgrass, Woolly [9, 13] | Plant response rating, Cupgrass, Woolly [9, 16]
65: Plant response rating (scale of 0 to 100), Ragweed ([5]; Postemergence, 31 g ai/ha)
75: Plant response rating, Foxtail, Giant [2, 17]
35: Plant response rating, Foxtail, Giant [2, 13]
80: Velvetleaf plant response rating ([1]; Postemergence, 125 g ai/ha) | Plant response rating, Velvetleaf [1, 15] | Plant response rating, Ragweed [5, 15] | Plant response rating, Nightshade ([10]; 62 g ai/ha, scale 0 to 100, 0 no effect, 100 complete control)
90: Plant response rating, Soybean [3, 15]
70: Plant response rating, Soybean [3, 14] | Plant response rating, Ragweed [5, 14] | Plant response rating, Morningglory [6, 14]
50: Velvetleaf plant response rating ([1]; Postemergence, 62 g ai/ha)
25: Plant response rating (scale of 0 to 100), Velvetleaf ([1]; Postemergence, 31 g ai/ha)
0: Plant response rating (scale of 0 to 100), Foxtail, Giant ([2]; Postemergence, 31 g ai/ha) | Foxtail, Giant plant response rating ([2]; Postemergence, 62 g ai/ha) | Foxtail, Giant plant response rating ([2]; Postemergence, 125 g ai/ha) | Plant response rating, Foxtail, Giant [2, 14] | Plant response rating, Foxtail, Giant [2, 15] | Plant response rating (scale of 0 to 100), Bermudagrass ([4]; Postemergence, 31 g ai/ha) | Bermudagrass plant response rating ([4]; Postemergence, 62 g ai/ha, scale 0 to 100 (0 no effect, 100 complete control)) | Plant response rating, Bermudagrass [4, 13] | Plant response rating, Bermudagrass ([4]; Postemergence, 125 g ai/ha, scale 0 to 100) | Plant response rating, Bermudagrass [4, 14] | Plant response rating, Bermudagrass [4, 15] | Plant response rating, Bermudagrass [4, 16] | Plant response rating, Bermudagrass [4, 17] | Plant response rating (scale of 0 to 100), Nutsedge, Yellow ([8]; Postemergence, 31 g ai/ha) | Nutsedge, Yellow plant response rating ([8]; Postemergence, 62 g ai/ha) | Nutsedge, Yellow plant response rating ([8]; Postemergence, 125 g ai/ha) | Plant response rating, Nutsedge, Yellow [8, 13] | Plant response rating, Nutsedge, Yellow [8, 14] | Plant response rating, Nutsedge, Yellow [8, 15] | Plant response rating, Nutsedge, Yellow [8, 16] | Plant response rating, Nutsedge, Yellow [8, 17] | Plant response rating (scale of 0 to 100), Cupgrass, Woolly ([9]; Postemergence, 31 g ai/ha) | Cupgrass, Woolly plant response rating ([9]; Postemergence, 62 g ai/ha) | Cupgrass, Woolly plant response rating ([9]; Postemergence, 125 g ai/ha) | Plant response rating, Cupgrass, Woolly [9, 14] | Plant response rating, Cupgrass, Woolly [9, 15] | Plant response rating (scale of 0 to 100), Goosegrass ([11]; Postemergence, 31 g ai/ha) | Goosegrass plant response rating ([11]; Postemergence, 62 g ai/ha) | Goosegrass plant response rating ([11]; Postemergence, 125 g ai/ha) | Plant response rating, Goosegrass [11, 13] | Plant response rating, Goosegrass [11, 14] | Plant response rating, Goosegrass [11, 15] | Plant response rating, Goosegrass [11, 16] | Plant response rating, Goosegrass [11, 17] | Plant response rating (scale of 0 to 100), Surinam Grass ([12]; Postemergence, 31 g ai/ha) | Surinam Grass plant response rating ([12]; Postemergence, 62 g ai/ha) | Surinam Grass plant response rating ([12]; Postemergence, 125 g ai/ha) | Plant response rating, Surinam Grass [12, 13] | Plant response rating, Surinam Grass [12, 14] | Plant response rating, Surinam Grass [12, 15] | Plant response rating, Surinam Grass [12, 16] | Plant response rating, Surinam Grass [12, 17]
85: Plant response rating (scale of 0 to 100), Soybean ([3]; Postemergence, 31 g ai/ha) | Ragweed plant response rating ([5]; Postemergence, 62 g ai/ha) | Plant response rating, Cupgrass, Woolly [9, 17]
95: Plant response rating, Velvetleaf [1, 13] | Soybean plant response rating ([3]; Postemergence, 62 g ai/ha) | Plant response rating, Soybean [3, 16] | Ragweed plant response rating ([5]; Postemergence, 125 g ai/ha) | Plant response rating, Ragweed [5, 13] | Plant response rating, Ragweed [5, 16] | Plant response rating (scale of 0 to 100), Morningglory ([6]; Postemergence, 31 g ai/ha) | Morningglory plant response rating ([6]; Postemergence, 62 g ai/ha) | Plant response rating, Morningglory [6, 15] | Plant response rating (scale of 0 to 100), Lambsquarters ([7]; Postemergence, 31 g ai/ha) | Plant response rating, Lambsquarters [7, 14] | Plant response rating, Lambsquarters [7, 15] | Plant response rating, Nightshade ([10]; 125 g ai/ha, scale 0 to 100)
